{
  "source": "patent US5312818A",
  "about": "“Method of protecting against and/or treating ulcerative gastrointestinal conditions using a thromboxane A2 receptor antagonist and combination useful in preventing and/or treating ulcers and/or inflammation” (E. R. Squibb & Sons, Inc., priority 1992, dated 1994)",
  "key": {"carrageenan paw edema": {"system": "carrageenan paw edema", "test": "carrageenan paw edema model in rats", "format": "in vivo", "details": "for effect on development of paw edema (in words): 10 mg/kg i.p.; for Paw Volume 3 hours after Carrageenan injection: SQ 33,961 10 mg/kg i.p. and/or indomethacin 10 mg/kg i.p., 7-8 rats", "procedure": "Paw volumes were measured before and hourly after carageenan injection in the 4 groups (N=7-8 each)."}, "[1]": {"system": "indomethacin-induced gastric ulcers", "format": "in vivo, male Sprague-Dawley rats", "details": "for inhibition of gastric erosions: indomethacin treated rats; for % Ulcer Inhibition: Table 1", "procedure": "(§1) The following experiment was carried out to evaluate thromboxane receptor involvement in other models of gastro-intestinal ulcer.\n(§2) In two studies, SQ 33,961 (1 and 10 mg/kg, i.p.) was evaluated in models of gastric ulcer induced by indomethacin (20 mg/kg, s.c.) and aspirin (200 mg/kg, p.o.). In each of these experiments, a dose of SQ 33,961 or vehicle (9.5% ethanol in 0.02% Na2 CO3, pH 9; 5 mL/kg) was administered by intraperitoneal injection 60 minutes before administration of aspirin, aspirin vehicle (1% methyl cellulose; 5 mL/kg, p.o.), indomethacin, or indomethacin vehicle (3.2% Na2 CO3, pH 8; 5 mL/kg, s.c.) in fasted male Sprague-Dawley rats (174-352 g). Three hours later, the rats were sacrificed by CO2 asphyxiation, the stomachs excised and opened, the lumen rinsed with saline, and the number and areas of gastric lesions measured."}, "[2]": {"system": "aspirin-induced gastric ulcers", "test": "aspirin-induced gastric ulcers in rats", "format": "in vivo, male Sprague-Dawley rats", "details": "for inhibition of gastric erosions: aspirin treated rats; for % Ulcer Inhibition: Table 1", "procedure": "as §1\nas §2, with “In two studies, SQ 33,961 (1 and 10 mg/kg, i.p.) was evaluated in models of gastric ulcer induced by indomethacin (20 mg/kg, s.c.) and aspirin (200 mg/kg, p.o.).” left out\n*Aspirin Dose = 200 mg/kg, p.o. 1 hour after dosing with Test Agent. Rats\nwere sacrificed and ulcers measured 3 hours after aspirin administration."}, "[3]": {"system": "taurocholic acid-induced ulcers", "test": "taurocholic acid-induced gastric ulcers in rats", "format": "in vivo", "details": "i.p.", "procedure": "The following experiment was conducted to determine the cytoprotective potential of the thromboxane receptor antagonist SQ 33,961 on taurocholic acid-induced ulcers in rats.\nFasted rats were treated with either vehicle (9.5% ethanol in 0.02% Na2 CO3, pH 9; 5 mL/kg, i.p.) or SQ 33,961 (0.01 to 10 mg/kg, i.p.) 60 minutes before administration of either vehicle (0.2N HCl, pH 2; 1.0 mL, p.o.) or taurocholic acid (100 mM, pH 2; 1.0 mL, p.o.). One hour later, rats were sacrificed and gastric lesion number and areas measured. There were no gastric erosions in the groups of rats challenged with the taurocholic acid vehicle."}},
  "note": "Like-named read-outs stand apart in the source and are kept apart here.",
  "data": [
    {"smiles": "COc1ccc2c(c1)c(CC(=O)O)c(C)n2C(=O)c1ccc(Cl)cc1", "note": "[Indomethacin, reference compound]", "values": [
      {"measurement": "effect on development of paw edema (in words)", "setting": "carrageenan paw edema", "value": "significantly inhibited edema formation"},
      {"measurement": "Paw Volume 3 hours after Carrageenan injection", "setting": "carrageenan paw edema", "value": "2.2 ± 0.08", "unit": "mL"},
      {"measurement": "Gastric lesion area (mm^2)", "setting": "[1]; Indomethacin (20 mg/kg, s.c.) + Vehicle (CONTROL), 16 rats, text calls it lesion area in mm^2", "value": "2.90 ± 0.81"},
      {"measurement": "Average total lesion area", "setting": "[1]; indomethacin 20 mg/kg, s.c., three hours, N=16", "value": "2.9±0.8", "unit": "mm^2"}
    ]},
    {"smiles": "CC(=O)Oc1ccccc1C(=O)O", "note": "[Aspirin, reference compound]", "values": [
      {"measurement": "Average Gastric Lesion Area", "setting": "[2]; Aspirin (200 mg/kg, p.o.) + Vehicle (CONTROL), 11 rats, text calls it lesion area in mm^2", "value": "10.5 ± 2.01"},
      {"measurement": "severity of gastric lesions (in words)", "setting": "[2]; aspirin 200 mg/kg, p.o. versus indomethacin 20 mg/kg, s.c.", "value": "more severe gastric lesions than indomethacin"},
      {"measurement": "Average total lesion area", "setting": "[2]; aspirin 200 mg/kg, p.o., three hours, N=11", "value": "10.5±2.1", "unit": "mm^2"}
    ]},
    {"smiles": "O=C(O)CCc1ccccc1C[C@@H]1[C@H](c2nc(C(=O)NCCCCC3CCCCC3)co2)[C@H]2CC[C@@H]1O2", "note": "[SQ 33,961, [1S-(1α,2α,3α,4α)]-2-[[3-[4-[[(4-cyclohexylbutyl)amino]carbonyl]-2-oxazolyl]-7-oxabicyclo[2.2.1]hept-2-yl]methyl]benzenepropanoic acid]", "values": [
      {"measurement": "effect on development of paw edema (in words)", "setting": "carrageenan paw edema", "value": "no significant effect on the development of paw edema"},
      {"measurement": "Paw Volume 3 hours after Carrageenan injection", "setting": "carrageenan paw edema", "value": "2.6 ± 0.11", "unit": "mL"},
      {"measurement": "effect on antiphlogistic activity of indomethacin (in words)", "setting": "carrageenan paw edema; SQ 33,961 10 mg/kg i.p., indomethacin 10 mg/kg i.p.", "value": "this antiphlogistic activity was not inhibited"},
      {"measurement": "reduction of gastric lesion area (in words)", "setting": "[3]; 0.01 to 10 mg/kg", "value": "dose-related reduction of gastric lesion area"},
      {"measurement": "ED50", "setting": "[3]; Rattus norvegicus, ip, 1 h, 60 minutes before taurocholic acid (100 mM, pH 2; 1.0 mL, p.o.), measured one hour later, read-out: ID50, reduction of gastric lesion area", "value": 0.012, "unit": "mg/kg"},
      {"measurement": "inhibition of gastric erosions", "setting": "[1]; 1 mg/kg, i.p.", "value": "about 70%"},
      {"measurement": "inhibition of gastric erosions", "setting": "[1]; 10 mg/kg, i.p.", "value": "~95", "unit": "%"},
      {"measurement": "Gastric lesion area (mm^2)", "setting": "[1]; Indomethacin (20 mg/kg, s.c.) + 1 mg/kg, i.p., 15 rats", "value": "0.94 ± 0.41"},
      {"measurement": "% Ulcer Inhibition", "setting": "[1]; Indomethacin (20 mg/kg, s.c.) + 1 mg/kg, i.p.", "value": 68, "unit": "%"},
      {"measurement": "Gastric lesion area (mm^2)", "setting": "[1]; Indomethacin (20 mg/kg, s.c.) + 10 mg/kg, i.p., 15 rats", "value": "0.08 ± 0.07"},
      {"measurement": "% Ulcer Inhibition", "setting": "[1]; Indomethacin (20 mg/kg, s.c.) + 10 mg/kg, i.p.", "value": 97, "unit": "%"},
      {"measurement": "Average Gastric Lesion Area", "setting": "[2]; 0.1 mg/kg, i.p., N=6, Table 3, aspirin 200 mg/kg, p.o.", "value": "6.21 ± 1.66", "unit": "mm^2"},
      {"measurement": "Average Gastric Lesion Area", "setting": "[2]; 1.0 mg/kg, i.p., N=9, Table 3, aspirin 200 mg/kg, p.o.", "value": "2.86 ± 1.02", "unit": "mm^2"},
      {"measurement": "inhibition of gastric erosions", "setting": "[2]; 1 mg/kg, i.p.", "value": "about 70%"},
      {"measurement": "Average Gastric Lesion Area", "setting": "[2]; 10.0 mg/kg, i.p., N=9, Table 3, aspirin 200 mg/kg, p.o.", "value": "0.62 ± 0.34", "unit": "mm^2"},
      {"measurement": "inhibition of gastric erosions", "setting": "[2]; 10 mg/kg, i.p.", "value": "~95", "unit": "%"},
      {"measurement": "Average Gastric Lesion Area", "setting": "[2]; Aspirin (200 mg/kg, p.o.) + 1 mg/kg, i.p., 9 rats", "value": "2.86 ± 1.02"},
      {"measurement": "% Ulcer Inhibition", "setting": "[2]; Aspirin (200 mg/kg, p.o.) + 1 mg/kg, i.p.", "value": 73, "unit": "%"},
      {"measurement": "Average Gastric Lesion Area", "setting": "[2]; Aspirin (200 mg/kg, p.o.) + 10 mg/kg, i.p., 9 rats", "value": "0.62 ± 0.34"},
      {"measurement": "% Ulcer Inhibition", "setting": "[2]; Aspirin (200 mg/kg, p.o.) + 10 mg/kg, i.p.", "value": 94, "unit": "%"},
      {"measurement": "effect on aspirin-induced gastric erosions (in words)", "setting": "[2]; aspirin 200 mg/kg, p.o.", "value": "dose related reductions in gastric erosions"}
    ]},
    {"smiles": "O=C(O)Cc1ccc(CCNS(=O)(=O)c2ccc(Cl)cc2)cc1", "note": "[BM 13,505, 4-[2-(4-chlorobenzenesulfonamido)ethyl]phenylacetic acid, reference compound]", "values": [
      {"measurement": "Average Gastric Lesion Area", "setting": "[2]; 20.00 mg/kg, i.p., N=9, Table 3, aspirin 200 mg/kg, p.o., vehicle 11.18 ± 2.35", "value": "4.68 ± 1.63", "unit": "mm^2"},
      {"measurement": "effect on aspirin-induced gastric erosions (in words)", "setting": "[2]; aspirin 200 mg/kg, p.o.", "value": "significantly diminished aspirin-induced gastric erosions"}
    ]},
    {"smiles": "O=C(O)c1ccc(OCCn2ccnc2)cc1", "note": "[Dazoxiben, reference compound]", "values": [
      {"measurement": "Average Gastric Lesion Area", "setting": "[2]; 50.0 mg/kg, i.p., N=6, Table 3, aspirin 200 mg/kg, p.o.", "value": "25.40 ± 8.50", "unit": "mm^2"},
      {"measurement": "effect on aspirin-induced gastric erosions (in words)", "setting": "[2]; aspirin 200 mg/kg, p.o.", "value": "did not diminish aspirin-induced gastric erosions"}
    ]}
  ]
}
